Here are results for 7 compounds from patent US10189786B2, “Antibacterial compounds” (Duke University, priority 2013, dated 2019).

Values after ≈ are worked out from the molar mass of the structure shown.

One test has as its system E. coli W3110. The test is described as follows: microbe, parasite or virus in culture. It counts as cell-based. As to conditions: Escherichia coli, W3110, 22 h, wild-type E. coli W3110; 22 hours at 37° C., MTT.
In a further test the test system is P. aeruginosa PAO1. The test is described as follows: MIC assay, P. aeruginosa PAO1. The class given is cell-based. As to conditions: Pseudomonas aeruginosa, PAO1, P. aeruginosa PAO1.
Test [1] relates to N. gonorrhoeae (FA35/02). The test is described as follows: MIC assay, N. gonorrhoeae 35/02. It counts as cell-based. As to conditions: drug-resistant strain; for MIC: Neisseria gonorrhoeae. Here is the method: MICs are determined according to the NCCLS protocol using 96-well plates. Briefly, diluted bacterial cells (10^6 cells/mL) are added into each well of the 96-well plates containing LB medium with 5% DMSO and various concentrations of the compound of disclosure. After incubation of the plates for 22 hours at 37° C., [4,5-dimethylthiazol-2-yl]-2,5-diphenyltetrazolium bromide solution (MTT) is added (final concentration, 0.2 mg/mL) and incubated at 37° C. for another 3 hrs. MIC is determined as the lowest concentration of an antibiotic that prevented color change (yellow to purple).
The antibiotic activities of several exemplary compounds useful in the methods of the disclosure are evaluated by measurements of minimum inhibitory concentrations (MICs) using two N. gonorrhoeae strains: FA19 (a drug-sensitive strain) and 35/02 (drug-resistant strain.) FA19 is an isolate from uncomplicated infection and was lyophilized in 1962. […] The strain is being sequenced to elucidate the mechanisms involved in high-level chromosomally mediated resistance.

The subject of test [2] is N. gonorrhoeae FA19 (a drug-sensitive strain). Briefly: Disk diffusion assay, N. gonorrhoeae FA19. As to conditions: Neisseria gonorrhoeae, disc 6 mm, read-out: diameter of the growth inhibition, FA19; for zone of inhibition at 0.2 µg/disc: 0.2 μg per disc; for zone of inhibition at 2 µg/disc: 2.0 μg per disc; for zone of inhibition at 20 µg/disc: 20 μg per disc. The class given is cell-based. Here is the method:
(§1) An assay was performed on two strains of Acinetobacter Baumannii: antibiotic susceptible strain (Sus. A.b. Isolate), and multidrug-resistant strains (MDR A.b. Isolate). […] Activity is measured as the diameter (in mm) of the growth inhibition.

Test [3] deals with N. gonorrhoeae 35/02 (drug-resistant strain). Briefly: Disk diffusion assay, N. gonorrhoeae 35/02. It counts as cell-based. As to conditions: Neisseria gonorrhoeae, disc 6 mm, read-out: diameter of the growth inhibition, 35/02; for zone of inhibition at 0.2 µg/disc: 0.2 μg per disc; for zone of inhibition at 2 µg/disc: 2.0 μg per disc; for zone of inhibition at 20 µg/disc: 20 μg per disc. Here is the method: as §1

For test [4], the system named is N. gonorrhoeae F89 (high-level cefixime and ceftriaxone resistance). The test is described as follows: Disk diffusion assay, N. gonorrhoeae F89. It counts as cell-based. As to conditions: Neisseria gonorrhoeae, disc 6 mm, read-out: diameter of the growth inhibition, F89; for zone of inhibition at 0.2 µg/disc: 0.2 μg per disc; for zone of inhibition at 2 µg/disc: 2.0 μg per disc; for zone of inhibition at 20 µg/disc: 20 μg per disc. Here is the method:
as §1

The next test relates to N. gonorrhoeae H041. Briefly: Disk diffusion assay, N. gonorrhoeae H041. It counts as cell-based. As to conditions: Neisseria gonorrhoeae, disc 6 mm, read-out: diameter of the growth inhibition, H041; for zone of inhibition at 0.2 µg/disc: H041, 0.2 μg per disc; for zone of inhibition at 2 µg/disc: H041, 2.0 μg per disc; for zone of inhibition at 20 µg/disc: H041, 20 μg per disc. How it is done: as §1
(In general: A growth-free zone around the sample is the usual read-out of agar diffusion tests.)

A further test has as its system E. coli W3110PA. The test is described as follows: microbe, parasite or virus in culture. The class given is cell-based. As to conditions: Escherichia coli, W3110PA, E. coli with native lpxC replaced by that of P. aeruginosa.
In test [5] the test system is F. novicida U112 (FNU112). The test is described as follows: microbe, parasite or virus in culture. It counts as cell-based. As to conditions: Francisella tularensis, read-out: MIC FNU112.
Test [6] concerns N. gonorrhoeae (FA35/02). As to conditions: description of the resistance of strain 35/02; cited from earlier work.
The test system of a further test is E. coli W3110NG. The test is described as follows: MIC assay, E. coli W3110NG. The class given is cell-based. As to conditions: Escherichia coli.

With `CC(NCCCc1ccc(-c2ccccc2)cc1)(C(=O)NO)C(C)(O)C(F)F` (stereo not drawn) [Example 10, 2-(3-(biphenyl-4-yl)propylamino)-4,4-difluoro-N,3-dihydroxy-2,3-dimethylbutanamide], the MIC in the test with E. coli W3110 was 61.2 µg/mL (≈ 156 µM); against P. aeruginosa PAO1 it was 2.5 µg/mL (≈ 6.37 µM); with N. gonorrhoeae (FA35/02) [1] it was 0.06 µg/mL (≈ 0.153 µM). For the same compound, the zone of inhibition at 0.2 µg/disc in test [2] worked out at 17 mm; in test [3], 15 mm; in test [4], 20 mm; in the test with N. gonorrhoeae H041, 13 mm. In addition, the zone of inhibition at 2 µg/disc in test [2] is 25 to 27 mm; in test [3] it was 20 mm; in test [4], 28 mm; in the test on N. gonorrhoeae H041, 20 mm. Further, the zone of inhibition at 20 µg/disc came to 30 mm in test [2], 27 mm in test [3], 35 mm in [4] and 27 mm in the test with N. gonorrhoeae H041.
In the case of `C[C@@](O)(C(F)F)[C@H](NC(=O)CCc1ccc(-c2ccccc2)cc1)C(=O)NO` [Example 14, (2S,3S)-2-(3-(biphenyl-4-yl)propanamido)-4,4-difluoro-N,3-dihydroxy-3-methylbutanamide], the MIC against E. coli W3110 is 6.25 µg/mL (≈ 15.9 µM); with E. coli W3110PA, 12.5 µg/mL (≈ 31.9 µM); in [5], 12.5 µg/mL (≈ 31.9 µM); in the test with N. gonorrhoeae (FA35/02) [1] it was 0.25 µg/mL (≈ 0.637 µM). In addition, the zone of inhibition at 0.2 µg/disc is 18 mm in test [2], 14 mm in test [3], 18 mm in [4] and 7 mm in the test with N. gonorrhoeae H041. Besides, the zone of inhibition at 2 µg/disc in [2] is 27 mm; in test [3], 22 mm; in test [4] it was 27 mm; in the test on N. gonorrhoeae H041, 20 mm. Further, the zone of inhibition at 20 µg/disc stood at 30 mm in [2], 28 mm in [3], 34 mm in [4] and 26 mm in the test with N. gonorrhoeae H041.
For `C[C@@](O)(C(F)F)[C@H](NCCCc1ccc(-c2ccccc2)cc1)C(=O)NO` [Example 11, (2S,3S)-2-(3-(biphenyl-4-yl)propylamino)-4,4-difluoro-N,3-dihydroxy-3-methylbutanamide], the MIC against E. coli W3110 is 1.25 µg/mL (≈ 3.3 µM); against P. aeruginosa PAO1, 2.5 µg/mL (≈ 6.61 µM); in the test with E. coli W3110PA it was 1.25 µg/mL (≈ 3.3 µM); in the test with N. gonorrhoeae (FA35/02) [1], 0.03 to 0.06 µg/mL (≈ 0.0793 to 0.159 µM). In the test on N. gonorrhoeae (FA35/02) [1], the “MIC N. gonorrhoeae (FA35/02)” value came out at 0.03 µg/mL (≈ 0.0793 µM). The zone of inhibition at 0.2 µg/disc was 18 mm in [2], 14 mm in test [3], 19 mm in test [4] and 11 mm with N. gonorrhoeae H041. The zone of inhibition at 2 µg/disc in test [2] is 25 mm; in test [3], 23 mm; in test [4], 26 mm; with N. gonorrhoeae H041 it was 20 mm. Further, the zone of inhibition at 20 µg/disc in test [2] was determined as 30 mm; in [3], 26 mm; in [4], 33 mm; with N. gonorrhoeae H041 it was 27 mm.
On to penicillin, for which the “MIC of reference antibiotics against N. gonorrhoeae 35/02” value in the test on N. gonorrhoeae (FA35/02) [6] was 6 µg/mL.
With `COc1ccc(-c2ccn(CCC(C)(C(=O)NO)S(C)(=O)=O)c(=O)c2)cc1` (stereo not drawn) [Example 13, N-hydroxy-4-(4-(4-methoxyphenyl)-2-oxopyridin-1 (2H)-yl)-2-methyl-2-(methylsulfonyl)butanamide], the MIC in the test on E. coli W3110 is under 0.78 µg/mL; in the test on P. aeruginosa PAO1, under 0.78 µg/mL; with E. coli W3110PA, under 0.78 µg/mL; with E. coli W3110NG, 1.25 µg/mL (≈ 3.17 µM); in test [5] it was 1.25 µg/mL (≈ 3.17 µM).
In the case of `C[C@@H](O)[C@H](NCc1ccc(-c2ccccc2)cc1)C(=O)NO` [Example 9, (2S,3R)-2-(biphenyl-4-ylmethylamino)-N,3-dihydroxybutanamide], the MIC in the test with E. coli W3110 is 25 µg/mL (≈ 83.2 µM); against P. aeruginosa PAO1 it was 5.4 µg/mL (≈ 18 µM); against E. coli W3110PA it was 4.8 µg/mL (≈ 16 µM); against E. coli W3110NG, over 50 µg/mL; in [5], over 5 µg/mL.
Consider `CO/N=C(\C(=O)N[C@@H]1C(=O)N2C(C(=O)O)=C(CSc3nc(=O)c(=O)[nH]n3C)CS[C@H]12)c1csc(N)n1` [ceftriaxone], for which the “MIC of reference antibiotics against N. gonorrhoeae 35/02” value in the test with N. gonorrhoeae (FA35/02) [6] was 0.12 µg/mL.
